Assays:
Assay in all cases: Minimum inhibitory concentration (MIC), agar plate dilution method
Assay type in all cases: cell-based
Al. fecalis IFO13111 = conditions: 10^6 CFU inoculated, 37° C., 18 hours
Description: (§1) With regard to the novel compounds obtained according to this invention and the compounds of Reference Examples, their minimum inhibitory concentrations (MIC) were determined by the agar plate dilution method in accordance with the MIC measuring standard method of The Chemotherapeutic Society of Japan, whereby 10^6 colony forming units were inoculated and the minimal concentration to inhibit the microbial growth after inclubation at 37° C. for 18 hours were determined, as shown as μg/ml in Table.

B. fragilis GM7000 = conditions: Bacteroides fragilis, GM7000; 10^6 CFU inoculated, 37° C., 18 hours
Description: as §1

B. fragilis V-280-1 = conditions: Bacteroides fragilis, V2801; 10^6 CFU inoculated, 37° C., 18 hours
Description: as §1

E. coli NIHI JC-2 = conditions: Escherichia coli, NIHIJC2; 10^6 CFU inoculated, 37° C., 18 hours
Description: as §1

E. coli W3630/Rms212 = conditions: Escherichia coli, W3630/RMS212, 18 h, read-out: minimum inhibitory concentration (MIC)
Description: as §1

E. coli W3630/Rms213 = conditions: Escherichia coli, W3630/RMS213, 18 h, read-out: minimum inhibitory concentration (MIC)
Description: as §1

Ent. cloacae 963 = conditions: Enterobacter cloacae, 963; 10^6 CFU inoculated, 37° C., 18 hours
Description: as §1

F. varium ATCC8501 = conditions: Fusobacterium varium, ATCC8501; 10^6 CFU inoculated, 37° C., 18 hours
Description: as §1

K. pneumoniae PC1602 = conditions: Klebsiella pneumoniae, PC1602; 10^6 CFU inoculated, 37° C., 18 hours
Description: as §1

M. luteus ATCC9341 = conditions: Micrococcus luteus, ATCC9341; 10^6 CFU inoculated, 37° C., 18 hours
Description: as §1

Pr. morganii IFO3848 = conditions: Morganella morganii, IFO3848; 10^6 CFU inoculated, 37° C., 18 hours
Description: as §1

Pr. vulgaris GN7919 = conditions: Proteus vulgaris, GN7919; 10^6 CFU inoculated, 37° C., 18 hours
Description: as §1

S. aureus FAD209P JC-1 = conditions: Staphylococcus aureus, FAD209PJC1; 10^6 CFU inoculated, 37° C., 18 hours
Description: as §1

Ser. marcescens IMA 1136 = conditions: Serratia marcescens, IMA1136; 10^6 CFU inoculated, 37° C., 18 hours
Description: as §1

Compound | MIC (Al. fecalis IFO13111) [µg/mL] | MIC (B. fragilis GM7000) [µg/mL] | MIC (B. fragilis V-280-1) [µg/mL] | MIC (E. coli NIHI JC-2) [µg/mL] | MIC (E. coli W3630/Rms212) [µg/mL] | MIC (E. coli W3630/Rms213) [µg/mL] | MIC (Ent. cloacae 963) [µg/mL] | MIC (F. varium ATCC8501) [µg/mL] | MIC (K. pneumoniae PC1602) [µg/mL] | MIC (M. luteus ATCC9341) [µg/mL] | MIC (Pr. morganii IFO3848) [µg/mL] | MIC (Pr. vulgaris GN7919) [µg/mL] | MIC (S. aureus FAD209P JC-1) [µg/mL] | MIC (Ser. marcescens IMA 1136) [µg/mL]
C[C@@H](O)[C@H]1C(=O)N2C(C(=O)O)=C(C3COCCO3)S[C@H]12 (mixture of isomers) [SUN 4742, Potassium (1'R, 2"s, 5R, 6S and 1'R, 2"R, 5R, 6S)-6-(1'-hydroxyethyl)-2-(2"-paradioxanyl)penem-3-carboxylate] | 0.78 | 0.05 | 0.05 | 1.56 | 3.13 | 0.78 | 6.25 | 0.78 | 0.1 | 0.1 | 6.25 | 0.78 | 0.05 | 6.25
C[C@@H](O)[C@H]1C(=O)N2C(C(=O)O)=C(Cc3ccsc3)S[C@H]12 (relative stereo) [SUN 3514, Potassium (1'R, 5R, 6S and 1'S, 5S, 6R)-6-(1'-hydroxyethyl)-2-(3"-thiophenemethyl)penem-3-carboxylate, reference compound] | 0.39 | 0.39 | 0.39 | > 50 | 50 | 25 | > 50 | 0.39 | 0.78 | 0.2 | 8.13 | 6.25 | 0.05 | 50
CCSCC1=C(C(=O)O)N2C(=O)[C@H]([C@@H](C)O)[C@H]2S1 (relative stereo) [SUN 3515, Potassium (1'R, 5R, 6S and 1'S, 5S, 6R)-2-ethylmethylthio)-6-(1'-hydroxyethyl)-penem-3-carboxylate, reference compound] | 0.78 | 0.1 | 0.2 | 25 | 25 | 12.5 | 50 | 0.39 | 0.78 | 0.2 | 3.13 | 1.56 | 0.1 | 25
CCOCC1=C(C(=O)O)N2C(=O)[C@H]([C@@H](C)O)[C@H]2S1 (relative stereo) [SUN 3519, Potassium (1'R, 5R, 6S and 1's, 5S, 6R)-2-(ethoxymethyl)-6-(1'-hydroxyethyl)-penem-3-carboxylate, reference compound] | 1.56 | 0.1 | 0.1 | 6.25 | 6.25 | 6.25 | 12.5 | 0.39 | 1.56 | 0.2 | 6.25 | 1.56 | 0.2 | 12.5
COCC1=C(C(=O)O)N2C(=O)[C@H]([C@@H](C)O)[C@H]2S1 (relative stereo) [SUN 3585, Potassium (1'R, 5R, 6S and 1'S, 5S, 6R)-6-(1-hydroxyethyl)-2-(methoxymethyl)penem-3-carboxylate, reference compound] | 1.56 | 0.05 | 0.1 | 0.78 | 0.78 | 0.78 | 3.13 | 0.78 | 0.78 | 0.1 | 6.25 | 0.78 | 0.1 | 3.13
C[C@@H](O)[C@H]1C(=O)N2C(C(=O)O)=C(C3CCCO3)S[C@H]12 (relative stereo) [SUN 4068, potassium (1'R, 2"R, 5R, 6S and 1'R, 2"S, 5R, 6S and 1'S, 2"R, 5S, 6R and 1'S, 2"S, 5S, 6R)-6-(1'-hydroxyethyl)-2-(2"-tetrahydrofuranyl)penem-3-carboxylate] | 1.56 | 0.05 | 0.2 | 1.56 | 3.13 | 3.13 | 6.25 | 0.78 | 0.39 | 0.1 | 3.13 | 0.78 | 0.1 | 6.25
C[C@@H](O)[C@H]1C(=O)N2C(C(=O)O)=C([C@@H]3CCCO3)S[C@H]12 (relative stereo) [SUN 4118, potassium (1'R, 2"S, 5R, 6S and 1'S, 2"R, 5S, 6R)-6-(1'-hydroxyethyl)-2-(2"-tetrahydrofuranyl)penem-3-carboxylate] | 1.56 | – | 0.2 | – | 12.5 | 12.5 | 25 | 1.56 | – | 0.05 | – | 1.56 | 0.1 | 25
C[C@@H](O)[C@H]1C(=O)N2C(C(=O)O)=C(c3ccco3)S[C@H]12 (relative stereo) [SUN 4194, Potassium (1'R, 5R, 6S and 1',S, 5S, 6R)-2-(2"-furanyl)-6-(1'-hydroxyethyl)penem-3-carboxylate, reference compound] | 6.25 | 0.39 | 6.25 | 25 | 25 | 25 | 25 | 6.25 | 3.13 | 0.2 | 12.5 | 3.13 | 0.39 | 25
C[C@@H](O)[C@H]1C(=O)N2C(C(=O)O)=C(c3ccoc3)S[C@H]12 (relative stereo) [SUN 4196, Potassium (1'R, 5R, 6S and 1'S, 5S, 6R)-2-(3"-furanyl)-6(1'-hydroxyethyl)penem-3-carboxylate, reference compound] | 12.5 | 0.78 | 12.5 | 1.25 | 25 | 25 | 25 | 6.25 | 3.13 | 0.2 | 12.5 | 3.13 | 0.2 | 25
C[C@@H](O)[C@H]1C(=O)N2C(C(=O)O)=C([C@@H]3CCC(=O)O3)S[C@H]12 [SUN 4262, Potassium (1'R, 2"S, 5R, 6S)-6-(1'-hydroxyethyl)-2-[2"-(5"-oxo)oxolanyl]penem-3-carboxylate] | 3.13 | 0.2 | 0.2 | 3.13 | 3.13 | 3.13 | 12.5 | 3.13 | 1.56 | 0.2 | 12.5 | 3.13 | 0.2 | 12.5
C[C@@H](O)[C@H]1C(=O)N2C(C(=O)O)=C([C@H]3CCC(=O)O3)S[C@H]12 [SUN 4374, Potassium (1'R, 2"R, 5R, 6S)-6-(1'-hydroxyethyl)-2[2"-(5"-oxo)oxolanyl]penem-3-carboxylate] | 1.56 | – | – | 1.56 | 1.56 | 0.78 | 3.13 | – | 0.39 | 0.1 | 3.13 | 0.78 | 0.1 | 3.13
C[C@@H](O)[C@H]1C(=O)N2C(C(=O)O)=C([C@@H]3CCCO3)S[C@H]12 [SUN 4434, Potassium (1'R, 2"S, 5R, 6S)-6-(1'-hydroxyethyl)-2-(2"-tetrahydofuranyl)penem-3-carboxylate] | 3.13 | – | 0.2 | – | 12.5 | 6.25 | 12.5 | 1.56 | – | < 0.025 | – | 0.78 | 0.05 | 25

Reference: patent publication US4997829A, “Penem compounds, and use thereof” (Suntory Limited, priority 1985, dated 1991)
